For one assay, the target named is T1, C1r-CUB1 (Homo sapiens, UniProt P00736).
T1 construct: The C1r-CUB1 construct corresponds to C1r residues 18–141; made in house; host or cells: E. coli BL21 (DE3)
T1 sequence (P00736 18-141): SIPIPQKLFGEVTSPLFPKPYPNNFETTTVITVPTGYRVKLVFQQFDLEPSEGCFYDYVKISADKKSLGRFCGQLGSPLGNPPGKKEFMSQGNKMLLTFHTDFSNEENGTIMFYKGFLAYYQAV
The assay can be described thus: SPR domain mapping, C1r-CUB1 surface. The conditions noted are these: duplicate. Type of assay: binding. The source says:
(§1) Figure 5 Selectivity and mechanistic analysis of CMP-1611 and CMP-1696. (A) Chemical structure of CMP-1611. (B) Chemical structure of CMP-1696. (C) Dose-dependent inhibition by CMP-1611 and CMP-1696 in a classical pathway-specific ELISA. Data were fit with GraphPad Prism using non-linear regression with a log(inhibitor) vs. response model. […] The CMP-778 inhibitory response could not be fit to a dose-response inhibition model. (D) Complement pathway selectivity of CMP-1611 and CMP-1696. Compounds were assessed for their ability to inhibit activation of complement via the lectin and alternative pathways using single doses of 500 μM compound in triplicate. To ensure only lectin pathway activation, 2% (v/v) C1q-depleted serum (CompTech) was used and mannan was used as the activator. To match serum sources and amounts for this assay, the classical pathway assays were repeated here using serum from CompTech at 2% (v/v) final concentration. Alternative pathway activation assays were performed using 20% (v/v) serum (CompTech), alternative pathway buffers, and C3b detection (see Methods and Materials for details). […] (E) C1r, C1r-CUB1, and C1r-CCP2-SP, were immobilized on an SPR sensor chip and binding responses for 500 μM CMP-1611 and CMP-1696 or 10 μM Futhan were each injected in duplicate over all surfaces. Binding responses were corrected for the molecular weight of each analyte and the immobilization level and molecular weight of each surface ligand. Measures of statistical significance in (D) were obtained by comparison of vehicle control using an unpaired t-test (* p < 0.05). To assess selectivity of CMP-1611 and CMP-1696, we performed pathway-specific ELISA-based inhibition assays. […] However, CMP-1696, but not CMP-1611, blocked lectin pathway activation at a similar level as it did the classical pathway (Figure 5D). To further investigate the divergent selectivity profiles of CMP-1611 and CMP-1696, we first sought to clarify the binding site on C1r for each compound. […] We then injected each compound simultaneously over the three surfaces at 500 μM and measured binding responses. […]

In a further assay the target is T2, C1r-CCP2-SP (Homo sapiens, UniProt P00736).
T2 sequence (P00736 374-463 limits assumed): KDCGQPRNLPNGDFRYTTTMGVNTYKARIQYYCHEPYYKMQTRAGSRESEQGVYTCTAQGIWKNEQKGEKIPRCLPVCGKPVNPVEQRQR
T2 sequence (P00736 464-705 limits assumed): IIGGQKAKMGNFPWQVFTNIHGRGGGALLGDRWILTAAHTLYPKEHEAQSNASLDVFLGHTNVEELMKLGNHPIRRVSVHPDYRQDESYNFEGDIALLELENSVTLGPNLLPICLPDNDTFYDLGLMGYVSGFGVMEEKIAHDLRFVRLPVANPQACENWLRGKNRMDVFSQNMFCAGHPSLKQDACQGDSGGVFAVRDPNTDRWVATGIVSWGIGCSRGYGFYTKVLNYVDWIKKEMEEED
The assay can be described thus: SPR domain mapping, C1r-CCP2-SP surface. The assay is classed as binding. The conditions noted are these: duplicate.
Source text: as §1

Take `CN(C)c1cc(N2CCCC(N)C2)ncn1` (stereo not drawn) [CMP-1611]: on C1r-CUB1 (500 µM compound), the “relative SPR binding response, C1r-CUB1” value is “bound weakly”. In addition, the “relative SPR binding response, C1r-CCP2-SP” value on C1r-CCP2-SP (500 µM compound) is “bound weakly”.
In the case of `COCc1nc(-c2ccc(OC3CNC3)cc2)no1` [CMP-1696], at C1r-CUB1 (500 µM compound), the “relative SPR binding response, C1r-CUB1” value is recorded as “low binding”. Moreover, on C1r-CCP2-SP (500 µM compound), the “relative SPR binding response, C1r-CCP2-SP” value is on record as “high binding”.
Consider `N=C(N)c1ccc2cc(OC(=O)c3ccc(N=C(N)N)cc3)ccc2c1` [Futhan, reference compound], for which, at C1r-CUB1 (10 µM Futhan), the “relative SPR binding response, C1r-CUB1” value is recorded as “very little binding response”. On C1r-CCP2-SP (10 µM Futhan), the “relative SPR binding response, C1r-CCP2-SP” value is “bound C1r and C1r-CCP2-SP similarly”.

The values above are taken from paper PMC7504721, “Targeting the Initiator Protease of the Classical Pathway of Complement Using Fragment-Based Drug Discovery” (Molecules, 2020).
